Measured values taken from PubChem BioAssay AID1963973 (Molecular Pharmacology Branch, DTP, NCI, 2024).
“And” between values parts separate entries of the source, which are not always exact repeats. Equal values may be shown once.

System: 883617-216-R-J1-PDC tumor spheroids, viability
Test: Anticancer human tumor 883617-216-R-J1-PDC patient-derived bladder carcinoma cell line growth inhibition [PI3K]
Conditions: spheroids with HUVEC and MSC; for viability, T/C: stronger effect = lower value
Excerpt: Combinatorial screen of targeted agents with the PI3K inhibitors inavolisib, alpelisib, duvelisib, and copanlisib in multi-cell type tumor spheroids
A high-throughput screen of multi-cell type tumor spheroids was designed to identify active combinations of targeted small molecules and PI3K pathway inhibitors. Complex spheroids include a stromal component modeled by human endothelial cells (HUVEC) and fibroblasts modeled by human mesenchymal stem cells (MSCs). The concentration ranges selected for each drug and investigational agent were based upon clinically achievable concentrations if the clinical Cmax of the agent was known.
Compounds. The drugs and investigational agents: inavolisib (NSC800729), alpelisib (NSC765974), duvelisib (NSC772469), copanlisib (NSC816437), ipatasertib (NSC767898), afuresertib (NSC778305), talazoparib (NSC767125), sapanisertib (NSC764658), selumetinib (NSC741078), tovorafenib (DAY101, NSC766906), vemurafenib (NSC761431), ravoxertinib (NSC781343), sotorasib (NSC818433), MRTX1133 (NSC 836407), abemaciclib (NSC 768073), palbociclib (NSC758247), venetoclax (NSC 766270), SY5609 (NSC837396), enzalutamide (NSC755605), and darolutamide (NSC825331), were obtained from the National Cancer Institute (NCI) Developmental Therapeutics Program Chemical Repository. The FDA-approved anticancer drug set is available from the NCI Developmental Therapeutics Program. […] The stock solutions were prepared in dimethyl sulfoxide (DMSO, Sigma-Aldrich, St. Louis, MO, cat. D2650) at 800-fold the tested concentration and stored at -70 degrees C prior to their use. All drugs and investigational agents were tested over a range starting from a high concentration at or near the clinical Cmax and decreasing in half-log increments. If the clinical Cmax for an agent had not been determined, the highest concentration tested was 10 microM.
Cell Culture. All cells were maintained in an incubator at 37 degrees C and 5% CO2 with 95% humidity. The PDC lines were cultured according to standard operating procedures established by the NCI PDMR (https://pdmr.cancer.gov/sops/default.htm). All PDCs were thawed and cultured in Matrigel-coated flasks prepared with a working solution of 1X Ham's F-12 nutrient mix, without supplementation (Invitrogen, Waltham, MA, cat. 11765054), 100 U/mL penicillin-streptomycin (Invitrogen, cat. 15140122), and 2.5% Matrigel (Corning Inc., Corning, NY, cat. 354248) for the first three passages. The 354836-022-R-J1-PDC, 475296-252-R-J1-PDC, and 997726-040-R-J2-PDC lines were cultured in 6A media, which includes advanced DMEM/F-12 (Thermo Fisher Scientific, cat. 12634028), 10 mM HEPES (Thermo Fisher Scientific, cat. 15630080), 1X GlutaMAX supplement (Thermo Fisher Scientific, cat. 35050061), 0.1 mg/mL primocin (InvivoGen, San Diego, CA, cat. ant-pm-2), 10% defined fetal bovine serum, heat inactivated (HyClone Laboratories Inc., Logan, UT, cat. SH30070.03HI), 50% L-WRN conditioned media (ATCC, cat. CRL-3276), 1.25 mM N-Acetyl-L-cysteine (Sigma-Aldrich, cat. A9165), 10 mM nicotinamide (Sigma-Aldrich, cat. N0636), 1X B-27 supplement (Thermo Fisher Scientific, cat. 17504044), 1X N-2 supplement (Thermo Fisher Scientific, cat. 17502048), and 10 microM Y-27632 dihydrochloride (Tocris Bioscience, Bristol, United Kingdom, cat. 1254). The 624824-186-R-J2-PDC line was cultured in 6C/Colon 1B media, which includes all 6A media components plus 50 ng/mL human EGF recombinant protein (Thermo Fisher Scientific, cat. PHG0311). […]
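Note: spheroids exposed to agents for 7 days before the viability read.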

## C#Cc1c(F)ccc2cc(O)cc(-c3ncc4c(N5CC6CCC(C5)N6)nc(OCC56CCCN5CC(F)C6)nc4c3F)c12 (stereo unspecified)
Compound 0.0316 µM
  viability, T/C: 99.5% [middle of 4 runs]
Compound 0.1 µM
  viability, T/C: 95.7% [middle of 4 runs]
Compound 0.316 µM
  viability, T/C: 100% [middle of 4 runs]
Compound 1 µM
  viability, T/C: 88% [middle of 4 runs]
Compound 3.16 µM
  viability, T/C: 80.5% (2×) and 102% and 88.1%
Compound 10 µM
  viability, T/C: 65.8% [middle of 4 runs]
Curve of compound
  IC50: > 10000 nM

## CC(Cn1ccc(-c2ccc(C#N)c(Cl)c2)n1)NC(=O)c1cc(C(C)O)[nH]n1 (stereo unspecified)
Compound 0.1 µM
  viability, T/C: 90.8% [middle of 4 runs]
Compound 0.316 µM
  viability, T/C: 104% [middle of 4 runs]
Compound 1 µM
  viability, T/C: 95.5% [middle of 4 runs]
Compound 3.16 µM
  viability, T/C: 110% [middle of 4 runs]
Compound 10 µM
  viability, T/C: 102% [middle of 4 runs]
Curve of compound
  IC50: > 10000 nM

## C[C@@H](NC(=O)c1ncnc(N)c1Cl)c1ncc(C(=O)Nc2cc(C(F)(F)F)c(Cl)cn2)s1
Compound 0.1 µM
  viability, T/C: 96.9% [middle of 4 runs]
Compound 0.316 µM
  viability, T/C: 88.3% [middle of 4 runs]
Compound 1 µM
  viability, T/C: 96.5% [middle of 4 runs]
Compound 3.16 µM
  viability, T/C: 93.2% (2×) and 95.3% and 100%
Compound 10 µM
  viability, T/C: 73% [middle of 4 runs]
Curve of compound
  IC50: > 10000 nM

## Cn1cnc2c(F)c(Nc3ccc(Br)cc3Cl)c(C(=O)NOCCO)cc21 + CC(Nc1ccc2c(c1)OCCn1cc(N3C(=O)OCC3C(F)F)nc1-2)C(N)=O
Curve of first compound, second compound 0.00316 µM
  IC50: 40.6 nM
Curve of first compound, second compound 0.01 µM
  IC50: 34.9 nM
Curve of first compound, second compound 0.0316 µM
  IC50: 10.3 nM
Curve of first compound, second compound 0.1 µM
  IC50: 13.4 nM
Curve of first compound, second compound 0.316 µM
  IC50: < 9.49 nM
Curve of first compound, second compound 1 µM
  IC50: < 9.49 nM
Second compound 0.00316 µM, first compound 0.00949 µM
  viability, T/C: 64.5%
Second compound 0.00316 µM, first compound 0.03 µM
  viability, T/C: 57.4%
Second compound 0.00316 µM, first compound 0.0949 µM
  viability, T/C: 35.1%
Second compound 0.00316 µM, first compound 0.3 µM
  viability, T/C: 35.3%
Second compound 0.00316 µM, first compound 0.949 µM
  viability, T/C: 26.5%
Second compound 0.00316 µM, first compound 3 µM
  viability, T/C: 19.6%
Second compound 0.01 µM, first compound 0.00949 µM
  viability, T/C: 62.9%
Second compound 0.01 µM, first compound 0.03 µM
  viability, T/C: 47.3%
Second compound 0.01 µM, first compound 0.0949 µM
  viability, T/C: 45.9%
Second compound 0.01 µM, first compound 0.3 µM
  viability, T/C: 30.6%
Second compound 0.01 µM, first compound 0.949 µM
  viability, T/C: 26.8%
Second compound 0.01 µM, first compound 3 µM
  viability, T/C: 19.4%
Second compound 0.0316 µM, first compound 0.00949 µM
  viability, T/C: 51.8%
Second compound 0.0316 µM, first compound 0.03 µM
  viability, T/C: 36%
Second compound 0.0316 µM, first compound 0.0949 µM
  viability, T/C: 25%
Second compound 0.0316 µM, first compound 0.3 µM
  viability, T/C: 25.2%
Second compound 0.0316 µM, first compound 0.949 µM
  viability, T/C: 20.1%
Second compound 0.0316 µM, first compound 3 µM
  viability, T/C: 14.2%
Second compound 0.1 µM, first compound 0.00949 µM
  viability, T/C: 61.2%
Second compound 0.1 µM, first compound 0.03 µM
  viability, T/C: 21.9%
Second compound 0.1 µM, first compound 0.0949 µM
  viability, T/C: 23.4%
Second compound 0.1 µM, first compound 0.3 µM
  viability, T/C: 18%
Second compound 0.1 µM, first compound 0.949 µM
  viability, T/C: 16.7%
Second compound 0.1 µM, first compound 3 µM
  viability, T/C: 7.35%
Second compound 0.316 µM, first compound 0.00949 µM
  viability, T/C: 22.1%
Second compound 0.316 µM, first compound 0.03 µM
  viability, T/C: 16.2%
Second compound 0.316 µM, first compound 0.0949 µM
  viability, T/C: 10.5%
Second compound 0.316 µM, first compound 0.3 µM
  viability, T/C: 11.5%
Second compound 0.316 µM, first compound 0.949 µM
  viability, T/C: 8.13%
Second compound 0.316 µM, first compound 3 µM
  viability, T/C: 4.48%
Second compound 1 µM, first compound 0.00949 µM
  viability, T/C: 13.3%
Second compound 1 µM, first compound 0.03 µM
  viability, T/C: 9.92%
Second compound 1 µM, first compound 0.0949 µM
  viability, T/C: 7.16%
Second compound 1 µM, first compound 0.3 µM
  viability, T/C: 7.46%
Second compound 1 µM, first compound 0.949 µM
  viability, T/C: 6.08%
Second compound 1 µM, first compound 3 µM
  viability, T/C: 3.09%
